Tests used:
Format in all cases: cell-based, human
SW982 cell = assay: Cytotoxicity test (Cell Counting Kit-8, cell proliferation rate); conditions: SW982 cells, 48 hours
Method: The compound represented by the Structural Formula (A) was evaluated for cytotoxicity as follows.
A SW982 cell (purchased from ATCC) at 2×10^3 cells/well was prepared with DMEM/F12 medium (manufactured by Thermo Fisher Scientific) containing 10% fetal bovine serum (manufactured by Nichirei Corporation), followed by inoculating into a 96-well culture plate so that each well contained 0.1 mL. At the same time, the test substance produced in Production Example 1 (the compound represented by the Structural Formula (A)) was added to each well at a concentration described in the following Table 1, followed by incubating for 48 hours under a condition of 37° C. and 5% CO2. After the incubation for 48 hours, 10 μL of a cytometric kit (CELL COUNTING KIT-8, manufactured by DOJINDO LABORATORIES) was added to the each well, followed by incubating for 2 hours. Then, an absorbance at 450 nm G was measured.
The cytometric kit allows living cells to develop a color. Accordingly, the higher absorbance at 450 nm is, the larger the number of living cells is, that is, cell proliferation is not affected. Therefore, based on the measurement result of absorbance in the each well, a cell proliferation rate was calculated according to the following Expression (3) to thereby evaluate an influence upon the cell proliferation: Cell proliferation rate (%)=G/H×100 Expression (3)
G denotes an absorbance at 450 nm in the system containing the test substance, and
H denotes an absorbance at 450 nm in the system containing no test substance (i.e., at a concentration of 0 nM in the following Table 1).

[1] = system: PGE2 production in SW982 cell; assay: PGE2 production inhibitory action in bradykinin-stimulated SW982 cells (HTRF kit); conditions: bradykinin 1 nM, 30 min, test substance 2 to 10,000 ng/mL, FIG. 5
Method: The compound represented by the Structural Formula (A) was evaluated for a PGE2 production inhibitory action as follows.
A SW982 cell which is a human […] cell line (purchased from ATCC (American Type Culture Collection)) was suspended into DMEM/F12 (Dulbecco's Modified Eagle Medium: Nutrient Mixture F-12, manufactured by Thermo Fisher Scientific) containing 10% fetal bovine serum (manufactured by Nichirei Corporation), followed by inoculating into a 96-well culture plate at 1×10^4 cells/well and incubating overnight.
After the incubation overnight, the medium in the 96-well culture plate containing the SW982 cells was replaced with HEPES-HANKS buffer (manufactured by NISSUI PHARMACEUTICAL CO., LTD.). […] After incubating for 30 min, a culture supernatant was collected, followed by measuring a PGE2 concentration A in the culture supernatant using a kit based on a HTRF (Homogeneous Time-Resolved Fluorescence) method (62P2APEB, manufactured by Cisbio Bioassays).
As a negative control, a PGE2 concentration B was measured in the same manner as in the measurement of the PGE2 concentration in the system containing the test substance, except that neither the test substance nor bradykinin (inflammatory stimulating agent) was added. […]

[2] = system: PGI2 production in SW982 cell; assay: PGI2 production inhibitory action (6-keto-PGF1α enzyme immunoassay) in bradykinin-stimulated SW982 cells; conditions: bradykinin 1 nM, 30 min, test substance 14 to 10,000 ng/mL, FIG. 5
Method: The compound represented by the Structural Formula (A) was evaluated for a PGI2 production inhibitory action as follows. PGI2 is metabolized to 6-keto-PGF1α (6-keto-prostaglandin F1α) which is a stabilized metabolite. Therefore, a concentration of PGI2 produced can be determined by measuring a concentration of 6-keto-PGF1α.
A SW982 cell which is human […] cell line (purchased from ATCC) was suspended into DMEM/F12 (manufactured by Thermo Fisher Scientific) containing 10% fetal bovine serum (manufactured by Biowest), followed by inoculating into a 96-well culture plate at 1×10^4 cells/well and incubating overnight. […]
As a negative control, a 6-keto-PGF1α concentration E was measured in the same manner as in the measurement of the 6-keto-PGF1α concentration in the system containing the test substance, except that neither the test substance nor bradykinin (inflammatory stimulating agent) was added.
As a positive control, a 6-keto-PGF1α concentration F was measured in the same manner as in the measurement of the 6-keto-PGF1α concentration in the system containing the test substance, except that the test substance was not added.
Based on the measurement result of 6-keto-PGF1α concentration in the each well, a 6-keto-PGF1α production rate was calculated according to the following Expression (2): 6-keto-PGF1α production rate (%)=(D−E)/(F−E)×100 Expression (2) […]

Compound: COC1=C(C)C(=O)c2ccc(OC3OC(C)C(O)C(O)C3O)c(NNC(C)=O)c2C1=O (stereo not shown) [Structural Formula (A)]
- Cell proliferation rate (%) (SW982 cell; concentration 111 nM): 100%
- Cell proliferation rate (%) (SW982 cell; concentration 333 nM): 103%
- Cell proliferation rate (%) (SW982 cell; concentration 10,000 nM): 111%
- Cell proliferation rate (%) (SW982 cell; concentration 30,000 nM): 95%
- Effect on cell proliferation of the SW982 cell (SW982 cell; up to 30,000 nM (Table 1)): not to affect cell proliferation
- PGE2 production rate [1]: decreased
- 6-keto-PGF1α production rate [2]: decreased

Source: patent US9399656B2, “Compound, method for producing same, and use of same” (Microbial Chemistry Research Foundation, priority 2011, dated 2016)
